Ten compounds from patent US8435978B2, “Substituted sulfonamide compounds” (Gruenenthal GmbH, priority 2006, dated 2013) can be followed below.

Counter-ions that a name gives are not always drawn.

The term inhibition denotes the relative decrease from the control value, in per cent.

In one assay the target is T1, B1R receptor of the rat (Rattus norvegicus, UniProt P97583).
T1 construct: host or cells: CHO K1 cells (Chinese hamster ovary), stably transfected
T1 sequence (P97583 1-337): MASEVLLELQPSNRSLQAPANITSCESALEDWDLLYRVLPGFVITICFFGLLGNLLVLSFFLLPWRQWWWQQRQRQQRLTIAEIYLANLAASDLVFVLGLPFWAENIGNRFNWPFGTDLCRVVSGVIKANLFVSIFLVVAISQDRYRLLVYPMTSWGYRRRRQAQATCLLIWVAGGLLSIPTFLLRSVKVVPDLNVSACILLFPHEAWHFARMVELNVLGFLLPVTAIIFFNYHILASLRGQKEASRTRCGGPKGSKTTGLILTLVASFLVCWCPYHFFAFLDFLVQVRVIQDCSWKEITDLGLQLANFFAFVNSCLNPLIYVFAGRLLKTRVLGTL
Description: Functional study on the bradykinin receptor 1 (B1R), FLIPR Ca2+ assay, rB1R cells. The following applies: agonist Des-Arg9-bradykinin 100 nM, % inhibition compared with the maximum achievable inhibition; for inhibition at 10 µM: CHO-K1, test substance 10 μM, read-out: B1R Antagonism, rat [10 μM] % Inhibition. It counts as cell-based. The method, boiled down: (§1)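 CHO K1 cells stably expressing human or rat B1R were loaded with Fluo-4 and read on a FLIPR (ex 488/em 540 nm, peak fluorescence). Test compounds at 10 μM were added first, then after 10 min agonist: Lys-Des-Arg9-bradykinin 0.5 nM for hB1R, Des-Arg9-bradykinin 100 nM for rB1R; % inhibition versus maximum inhibition.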

The next assay deals with T2, human B1R receptor (Homo sapiens, UniProt P46663).
T2 construct: host or cells: CHO K1 cells (Chinese hamster ovary), stably transfected
T2 sequence (P46663 1-353): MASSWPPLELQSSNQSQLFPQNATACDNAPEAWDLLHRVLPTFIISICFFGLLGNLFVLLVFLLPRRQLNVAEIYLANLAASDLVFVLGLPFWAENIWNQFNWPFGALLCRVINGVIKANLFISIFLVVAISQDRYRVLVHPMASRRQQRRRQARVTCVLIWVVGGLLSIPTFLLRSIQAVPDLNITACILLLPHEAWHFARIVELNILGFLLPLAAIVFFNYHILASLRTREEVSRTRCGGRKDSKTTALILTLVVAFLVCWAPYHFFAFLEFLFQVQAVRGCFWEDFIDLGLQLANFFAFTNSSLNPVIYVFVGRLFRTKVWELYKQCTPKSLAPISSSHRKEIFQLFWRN
Description: Functional study on the bradykinin receptor 1 (B1R), FLIPR Ca2+ assay, hB1R cells. It counts as cell-based. The note with it: agonist Lys-Des-Arg9-bradykinin 0.5 nM, % inhibition compared with the maximum achievable inhibition; for inhibition at 10 µM: CHO-K1, test substance 10 μM, read-out: B1R Antagonism, human [10 μM] % Inhibition. The procedure, abridged: as §1

Regarding `Cc1cc(F)cc(C)c1S(=O)(=O)N1CCCCC1COCC(=O)N1CCN(C2CCN(C)CC2)CC1` (centres unmarked) [Example 169, 2-((1-(4-fluoro-2,6-dimethylphenylsulfonyl)piperidin-2-yl)methoxy)-1-(4-(1-methylpiperidin-4-yl)piperazin-1-yl)ethanone dihydrochloride], the inhibition at 10 µM was determined as 101% at B1R receptor of the rat and 100% on human B1R receptor.

Take `COc1cc(C)c(S(=O)(=O)N2CCCC2COCC(=O)N2CC[C@@H](N(C)C)C2)c(C)c1` (stereo partly drawn) [Example 476, 1-((R)-3-(dimethylamino)pyrrolidin-1-yl)-2-((1-(4-methoxy-2,6-dimethylphenylsulfonyl)pyrrolidin-2-yl)methoxy)ethanone]: the inhibition at 10 µM on B1R receptor of the rat is 100%; on human B1R receptor, 90.1%.

As for `COc1ccc(S(=O)(=O)N2CCCCC2COCC(=O)N2CCN(C3CCN(C)CC3)CC2)c2ccccc12` (centres unmarked) [Example 174, 2-((1-(4-methoxynaphthalen-1-ylsulfonyl)piperidin-2-yl)methoxy)-1-(4-(1-methylpiperidin-4-yl)piperazin-1-yl)ethanone dihydrochloride], the inhibition at 10 µM at B1R receptor of the rat turned out to be 98%; on human B1R receptor, 101%.

Consider `COc1cc(C)c(S(=O)(=O)N2CCCC2COCC(=O)N2CCN(c3ncccn3)CC2)c(C)c1` (centres unmarked) [Example 309, 2-((1-(4-methoxy-2,6-dimethylphenylsulfonyl)pyrrolidin-2-yl)methoxy)-1-(4-(pyrimidin-2-yl)piperazin-1-yl)ethanone], for which the inhibition at 10 µM at B1R receptor of the rat is 101%; on human B1R receptor, 52%.

Regarding `O=C(COCC1CCCCN1S(=O)(=O)c1cccc2ccccc12)N1CCCC1CN1CCCCC1` (centres unmarked) [Example 64, 2-[1-(naphthyl-1-sulfonyl)-piperidin-2-ylmethoxy]-1-(2-piperidin-1-ylmethyl-pyrrolidin-1-yl)-ethanone], the “B1R Antagonism, rat [10 μM] % Inhibition” value on B1R receptor of the rat (test substance 10 μM, rB1R CHO K1 cells) came out at 25.48%. Further, at human B1R receptor (test substance 10 μM, hB1R CHO K1 cells), the “B1R Antagonism, human [10 μM] % Inhibition” value is reported as 57.92%.

As for `COc1cc(C)c(S(=O)(=O)N2CCCC2COCC(=O)N2CCN(CCc3ccccc3)CC2)c(C)c1` (centres unmarked) [Example 310, 2-((1-(4-methoxy-2,6-dimethylphenylsulfonyl)pyrrolidin-2-yl)methoxy)-1-(4-phenethylpiperazin-1-yl)ethanone], the inhibition at 10 µM came to 102% on B1R receptor of the rat and 106% at human B1R receptor.

With `COc1cc(C)c(S(=O)(=O)N2CCCCC2COCC(=O)Nc2[nH]ncc2-c2ccc(OC)c(OC)c2)c(C)c1` (centres unmarked) [Example 538, N-(4-(3,4-dimethoxyphenyl)-1H-pyrazol-5-yl)-2-((1-(4-methoxy-2,6-dimethylphenylsulfonyl)piperidin-2-yl)methoxy)acetamide], the inhibition at 10 µM at B1R receptor of the rat was 106%; at human B1R receptor, -11.8%.

`COc1cc(C)c(S(=O)(=O)N2CCCCC2COCC(=O)N2CCN(C)CC2c2ccccc2)c(C)c1` (centres unmarked) [Example 388, 2-((1-(4-methoxy-2,6-dimethylphenylsulfonyl)piperidin-2-yl)methoxy)-1-(4-methyl-2-phenylpiperazin-1-yl)ethanone]: the inhibition at 10 µM on B1R receptor of the rat amounted to 101%; at human B1R receptor, 22.9%.

Turning to `Cc1cccc(CC2CCCN2C(=O)COCC2CCCCN2S(=O)(=O)c2c(Cl)cccc2Cl)n1` (centres unmarked) [Example 458, 2-((1-(2,6-dichlorophenylsulfonyl)piperidin-2-yl)methoxy)-1-(2-((6-methylpyridin-2-yl)methyl)pyrrolidin-1-yl)ethanone], the figures for the inhibition at 10 µM at B1R receptor of the rat and at human B1R receptor were 100% and 103%, respectively.

Regarding `COc1cc(C)c(S(=O)(=O)N2CCCC2COCC(=O)N2CCC(CCN3CCCC3)CC2)c(C)c1` (centres unmarked) [Example 95, 2-((1-(4-methoxy-2,6-dimethylphenylsulfonyl)pyrrolidin-2-yl)methoxy)-1-(4-(2-(pyrrolidin-1-yl)ethyl)piperidin-1-yl)ethanone], the inhibition at 10 µM is 101% on B1R receptor of the rat and 107% at human B1R receptor.
